This is an account of results in US5716797A, “Stable two-part reagent for the measurement of creatine kinase activity” (Wako Pure Chemical Industries, Ltd., priority 1995, dated 1998).

For data set [1], the target named is T1, creatine kinase (CK) in human serum (Homo sapiens, UniProt P06732).
T1 construct: Five fresh human serum samples were used; from tissue; host or cells: fresh human serum
The data set can be described thus: Inhibitory effect of oxidized products of SH compounds on CK activity (HK/G6PDH UV method, NAC 26 mM as reactivator). In kind it is biochemical. Particulars: for inhibition of CK activity by oxidized product / activity at 5000 µM: 5 mM oxidized product; for CK activity value / CK activity value, Average: 5 mM SH compound oxidized product; for CK activity value: NAC 26 mM, 37° C.; for CK activity value, Average: average of 5 samples; for activity at 5000 µM: average with enzyme solution containing no SH compound oxidized product = 100%, read-out: CK activity, relative value. The method, then:
Investigation on the inhibitory effect of oxidized products of SH compounds on CK activity
Thus, oxidized products of the SH compounds, respectively, were obtained.
NAC (26 mM) as CK reactivator, each 5 mM of SH compound oxidized product obtained above, 2.6 mM of ADP, 3.9 u/ml of HK (available from Oriental Yeast Co., Ltd.), 8.0 u/ml of G6PDH (available from Oriental Yeast Co., Ltd.), 2.6 mM of NADP, 21 mM of glucose, 10 mM of magnesium acetate, 6.5 mM of AMP, 0.013 mM of APSA, 0.1% (w/v) of sodium azide and 2 mM of EDTA-2Na were dissolved in 128 mM imidazole-acetate buffer (pH 6.7). The thus obtained solutions were adjusted to pH 6.7 with sodium hydroxide to obtain enzyme solutions.
An enzyme solution containing no SH compound oxidized product was prepared as a control standard solution.
(§1) Five fresh human serum samples were used.
(§2) To 8 μl of each sample was added 320 μl of each enzyme solution, followed by preincubation for 5 minutes. Then, 80 μl of the substrate solution was added to initiate the reaction and the change of absorbance per minute was measured for 3 minutes from 2 minutes after the addition of the substrate solution. The CK activity value was calculated from the molecular extinction coefficient of the NADPH produced.
(§3) As a measuring apparatus, an Autoanalyzer Hitachi Model 7150 was used, and the measurement was carried out at 37° C. by use of dual wavelength (λ1 =405 nm, λ2 =340 nm).
Tables 2 and 3 show the CK activity values of the 5 samples in each case and the average thereof.

Data set [2] relates to creatine kinase (CK) in human serum. The data set can be described thus: CK activity measured with enzyme solutions containing SH compounds as CK reactivator, fresh and after 1 month of storage (Example 1 / Comparative Example 1). The class given is biochemical. Particulars: for CK activity, relative value: NAC just after preparation = 100%. The method, then: The resulting solution was adjusted to pH 6.7 with sodium hydroxide and stored at a predetermined temperature for a predetermined period. The thus obtained solution were used as enzyme solutions.
as §1, §2, §3
Enzyme solutions were prepared in the same manner as in Example 1 by use of the same reagents as in Example 1 except for using a predetermined concentration(s) of one or two SH compounds properly selected from the above-mentioned CK reactivators, in place of the CK reactivator(s) used in Example 1.
CK activity was measured in the same manner as in Example 1.

Where [3] appears, read: Sample 1, enzyme solution just after preparation, TG 100 mM, 2ME 26 mM, 2MES 26 mM, NAC 26 mM.
The mark [4] stands for this setting: Sample 2, enzyme solution just after preparation, TG 100 mM, 2ME 26 mM, 2MES 26 mM, NAC 26 mM.
Where [5] appears, read: Sample 2, enzyme solution stored at 10° C. for 1 month, TG 100, 2ME 26, 2MES 26, NAC 26, L-cysteine 6.5, GSH 12, TDG 5, DTT 6.5 mM.
[6] abbreviates: Sample 2, enzyme solution stored at 20° C. for 1 month, TG 100, 2ME 26, 2MES 26, NAC 26, L-cysteine 6.5, GSH 12, TDG 5, DTT 6.5 mM.
Where [7] appears, read: Sample 3, enzyme solution just after preparation, TG 100 mM, 2ME 26 mM, 2MES 26 mM, NAC 26 mM.
Setting [8] is: Sample 3, enzyme solution stored at 10° C. for 1 month, TG 100, 2ME 26, 2MES 26, NAC 26, L-cysteine 6.5, GSH 12, TDG 5, DTT 6.5 mM.
[9] abbreviates: Sample 3, enzyme solution stored at 20° C. for 1 month, TG 100, 2ME 26, 2MES 26, NAC 26, L-cysteine 6.5, GSH 12, TDG 5, DTT 6.5 mM.
[10] abbreviates: Sample 4, enzyme solution just after preparation, TG 100 mM, 2ME 26 mM, 2MES 26 mM, NAC 26 mM.
[11] abbreviates: Sample 4, enzyme solution stored at 10° C. for 1 month, TG 100, 2ME 26, 2MES 26, NAC 26, L-cysteine 6.5, GSH 12, TDG 5, DTT 6.5 mM.
[12] abbreviates: Sample 4, enzyme solution stored at 20° C. for 1 month, TG 100, 2ME 26, 2MES 26, NAC 26, L-cysteine 6.5, GSH 12, TDG 5, DTT 6.5 mM.
[13] abbreviates: Sample 5, enzyme solution just after preparation, TG 100 mM, 2ME 26 mM, 2MES 26 mM, NAC 26 mM.
The mark [14] stands for this setting: Sample 5, enzyme solution stored at 10° C. for 1 month, TG 100, 2ME 26, 2MES 26, NAC 26, L-cysteine 6.5, GSH 12, TDG 5, DTT 6.5 mM.
Where [15] appears, read: Sample 5, enzyme solution stored at 20° C. for 1 month, TG 100, 2ME 26, 2MES 26, NAC 26, L-cysteine 6.5, GSH 12, TDG 5, DTT 6.5 mM.
Where [16] appears, read: average of 5 samples, enzyme solution just after preparation, TG 100 mM, 2ME 26 mM, 2MES 26 mM, NAC 26 mM.
Where [17] appears, read: average of 5 samples, enzyme solution stored at 10° C. for 1 month, TG 100, 2ME 26, 2MES 26, NAC 26, L-cysteine 6.5, GSH 12, TDG 5, DTT 6.5 mM.
Where [18] appears, read: average of 5 samples, enzyme solution stored at 20° C. for 1 month, TG 100, 2ME 26, 2MES 26, NAC 26, L-cysteine 6.5, GSH 12, TDG 5, DTT 6.5 mM.
Where [19] appears, read: enzyme solution just after preparation.
Where [20] appears, read: enzyme solution stored at 10° C. for 1 month.
Where [21] appears, read: enzyme solution stored at 20° C. for 1 month.
Where [22] appears, read: Sample 1, enzyme solution stored at 20° C. for 1 month, TG 100, 2ME 26, 2MES 26, NAC 26, L-cysteine 6.5, GSH 12, TDG 5, DTT 6.5 mM.
[23] abbreviates: Sample 1, enzyme solution stored at 10° C. for 1 month, TG 100, 2ME 26, 2MES 26, NAC 26, L-cysteine 6.5, GSH 12, TDG 5, DTT 6.5 mM.

Values joined by “and” are separate entries in the source; they are usually repeats but may differ in a detail not shown here. Identical values can stand only once. Like-named read-outs stand apart in the source and are kept apart here.

T1 sequence (P06732 whole entry): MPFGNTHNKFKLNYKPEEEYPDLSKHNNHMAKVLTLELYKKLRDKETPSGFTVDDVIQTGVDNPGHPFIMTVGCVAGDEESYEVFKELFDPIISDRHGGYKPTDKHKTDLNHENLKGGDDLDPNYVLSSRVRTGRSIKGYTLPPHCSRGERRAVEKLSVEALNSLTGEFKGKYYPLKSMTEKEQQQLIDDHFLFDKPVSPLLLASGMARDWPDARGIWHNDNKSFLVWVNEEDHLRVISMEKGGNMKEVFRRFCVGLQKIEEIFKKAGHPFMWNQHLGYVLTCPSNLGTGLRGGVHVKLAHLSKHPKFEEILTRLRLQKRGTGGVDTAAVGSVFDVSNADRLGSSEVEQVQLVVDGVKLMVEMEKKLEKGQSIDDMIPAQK

As to `O[C@@H]1CSSC[C@H]1O` (relative stereo) [DTT oxidized product], the “inhibition of CK activity by oxidized product” value in data set [1] is “hardly inhibited CK activity”. Moreover, the CK activity value in data set [1] (Sample 1 (fresh human serum)) was determined as 150 IU/l; in data set [1] (Sample 2), 407 IU/l; in data set [1] (Sample 3), 108 IU/l; in data set [1] (Sample 4) it was 319 IU/l; in data set [1] (Sample 5), 99 IU/l. For the same compound, in data set [1], the “CK activity value, Average” value worked out at 216 IU/l. Also, the activity at 5000 µM in data set [1] was determined as 95.9%.

For `O=c1ccnc(SSc2nccc(=O)[nH]2)[nH]1` [2-Thiouracil oxidized product], the “inhibition of CK activity by oxidized product” value in data set [1] is reported as “hardly inhibited CK activity”. Besides, the CK activity value amounted to 143 IU/l in data set [1] (Sample 1 (fresh human serum)); 407 IU/l in data set [1] (Sample 2); 106 IU/l in data set [1] (Sample 3); 314 IU/l in data set [1] (Sample 4); 97 IU/l in data set [1] (Sample 5). The “CK activity value, Average” value in data set [1] is on record as 213 IU/l. Also, the activity at 5000 µM in data set [1] is 94.6%.

With `OCCS` [2ME, 2-mercaptoethanol], the “retaining CK-reactivating ability for a long period of time in an aqueous solution” value (from here on “retaining CK-reactivating ability”) in data set [2] is on record as “capable of retaining CK-reactivating ability for a long period of time”. Also, the CK activity value stood at 186 IU/l in data set [2] (setting [3]); 554 IU/l in data set [2] (setting [4]); 559 IU/l in data set [2] (setting [5]); 559 IU/l in data set [2] (setting [6]); 151 IU/l in data set [2] (setting [7]); 155 IU/l in data set [2] (setting [8]). In addition, the CK activity value in data set [2] (setting [9]) turned out to be 155 IU/l; in data set [2] (setting [10]), 58 IU/l; in data set [2] (setting [11]), 59 IU/l; in data set [2] (setting [12]), 58 IU/l; in data set [2] (setting [13]) it was 89 IU/l; in data set [2] (setting [14]) it was 89 IU/l. In addition, the CK activity value in data set [2] (setting [15]) is listed as 89 IU/l. In addition, the “CK activity value, Average” value in data set [2] (setting [16]) turned out to be 208 IU/l; in data set [2] (setting [17]), 210 IU/l; in data set [2] (setting [18]), 209 IU/l. For the same compound, the results for the “CK activity, relative value” in data set [2] (setting [19]), in data set [2] (setting [20]) and in data set [2] (setting [21]) were 101.9%, 102.8% and 102.4%, respectively.

As to `O=S(=O)(O)CCS` [2MES, 2-mercaptoethanesulfonic acid], the CK activity value came to 184 IU/l in data set [2]; 184 IU/l in data set [2] (setting [3]); 181 IU/l in data set [2] (setting [22]); 553 IU/l in data set [2] (setting [4]); 548 IU/l in data set [2] (setting [5]); 542 IU/l in data set [2] (setting [6]). Moreover, the CK activity value in data set [2] (setting [7]) is reported as 151 IU/l; in data set [2] (setting [8]), 147 IU/l; in data set [2] (setting [9]), 148 IU/l; in data set [2] (setting [10]), 58 IU/l; in data set [2] (setting [11]), 55 IU/l; in data set [2] (setting [12]), 55 IU/l. In addition, the CK activity value in data set [2] (setting [13]) is 88 IU/l; in data set [2] (setting [14]), 85 IU/l; in data set [2] (setting [15]), 87 IU/l. Besides, in data set [2], the “retaining CK-reactivating ability” value is “capable of retaining CK-reactivating ability for a long period of time”. The “CK activity value, Average” value in data set [2] (setting [16]) stood at 207 IU/l; in data set [2] (setting [17]), 204 IU/l; in data set [2] (setting [18]), 203 IU/l. For the same compound, the “CK activity, relative value” in data set [2] (setting [19]) is 101.4%; in data set [2] (setting [20]), 99.9%; in data set [2] (setting [21]), 96.3%.

In the case of `N[C@@H](CCC(=O)N[C@@H](CS)C(=O)NCC(=O)O)C(=O)O` [GSH, reduced-form glutathione], the “CK activity value, Average” value in data set [2] is 192 IU/l and 167 IU/l. For the same compound, the “CK activity, relative value” in data set [2] (setting [20]) is given as 94.1%; in data set [2] (setting [21]), 81.9%.

`N[C@@H](CS)C(=O)O` [L-cysteine]: the CK activity value came out at 140 IU/l in data set [2] (setting [23]); 52 IU/l in data set [2] (setting [22]); 437 IU/l in data set [2] (setting [5]); 175 IU/l in data set [2] (setting [6]); 110 IU/l in data set [2] (setting [8]); 33 IU/l in data set [2] (setting [9]). The CK activity value in data set [2] (setting [11]) was determined as 42 IU/l; in data set [2] (setting [12]), 12 IU/l; in data set [2] (setting [14]), 63 IU/l; in data set [2] (setting [15]) it was 19 IU/l. Besides, the “CK activity value, Average” value in data set [2] (setting [17]) was found to be 158 IU/l; in data set [2] (setting [18]) it was 58 IU/l. For the same compound, the “CK activity, relative value” was 77.5% in data set [2] (setting [20]) and 28.4% in data set [2] (setting [21]).

`O.O.OC[C@H]1O[C@@H](S)[C@H](O)[C@@H](O)[C@@H]1O.[Na].[Na]` [TDG, 1-thio-β-D-glucose disodium salt dihydrate]: the “retaining CK-reactivating ability” value in data set [2] is given as “incapable of retaining CK-reactivating ability in a solution for a long period of time”. Besides, the CK activity value is reported as 0 IU/l in data set [2] (setting [23]); 0 IU/l in data set [2] (setting [22]); 3 IU/l in data set [2] (setting [5]); 4 IU/l in data set [2] (setting [6]); 1 IU/l in data set [2] (setting [8]); 2 IU/l in data set [2] (setting [9]). In addition, the CK activity value in data set [2] (setting [11]), in data set [2] (setting [12]), in data set [2] (setting [14]) and in data set [2] (setting [15]) was 0 IU/l throughout. Moreover, the “CK activity value, Average” value in data set [2] (setting [17]) and in data set [2] (setting [18]) was 1 IU/l throughout. The figures for the “CK activity, relative value” in data set [2] (setting [20]) and in data set [2] (setting [21]) were 0.4% and 0.6%, respectively.
